Experimental data published in US6254853A, “Water soluble pro-drugs of propofol” (Vyrex Corporation, priority 1998, dated 2001).
“Also recorded” adds a separate entry of the source.

Tests used:
spinal cord = conditions: literature; cited from earlier work
[1] = literature; cited from earlier work
colorectal cancer tumors = conditions: mice; co-administered with 5-fluorouracil or doxorubicin; Chinery et al. 1997; cited from earlier work
[2] = test system: low density lipoprotein (LDL); assay: Effect of propofol esters on copper-promoted oxidation of LDL (conjugated dienes); type: biochemical, human; conditions: 5 μM; 100 μg/ml LDL, 5 μM copper sulfate
Source text: (§1) The following experiment is based on the use of low density lipoprotein (LDL) as an oxidizable substrate. LDL is one of the plasma lipoproteins whose oxidation is thought to contribute to the pathogenesis of atherosclerosis. The copper-promoted, the hydrogen peroxide-/horseradish peroxidase-promoted and the myeloperoxidase-promoted oxidation of LDL are models for the free radical-induced oxidation of LDL that occurs in vivo.
(§2) LDL was isolated from heparinized plasma of normal human donors by ultracentrifugation. Most of the experiments described in this study were performed immediately after isolation. Examples and further details of the experimental procedures may be found in N. Santanam et al. J. Clin Invest. 95(6):2594 (1995) and FEBS Leters, 414:549-551 (1997).
(§3) The formation of conjugated dienes was measured in a spectrophotometer (model DB-3500; SLM-AMINCO, Urbana, Ill.) equipped with a 12 position sample changer. Samples and references were measured continuously for periods of up to several hours. Typically, 100 μg/ml of LDL was incubated in PBS with 1 U horseradish peroxidase (type X, 260 U/mg) in the presence of 50 μM H2 O2. For copper-mediated oxidation, 100 μg/ml LDL was incubated with 5 μM copper sulfate solution.

[3] = test system: low density lipoprotein (LDL); assay: Effect of propofol esters on hydrogen peroxide/horseradish peroxidase-promoted oxidation of LDL (conjugated dienes); type: biochemical, human; conditions: 5 μM; 100 μg/ml LDL, 1 U horseradish peroxidase, 50 μM H2O2
Source text: as §1, §2, §3

Water solubility = conditions: in words
[4] = In vitro hydrolysis of propofol esters to propofol in human saliva; type: in vitro ADME; conditions: room temperature, approximate
Description: (§4) In vitro hydrolysis of propofol esters in various media
(§5) General procedure: Propofol ester was dissolved in the test medium at room temperature, and samples were removed periodically for analysis. The samples were extracted with hexane, the extracts were evaporated to dryness, and the residues were taken up in methanol. Analysis was by HPLC using methanol solvent through an ODS column and UV detection at 260 nm.
(§6) The approximate half-life for the hydrolysis of propofol hemisuccinate to propofol in various media were as follows: […]

[5] = In vitro hydrolysis of propofol esters to propofol in human plasma; type: in vitro ADME; conditions: room temperature, approximate
Description: as §4, §5, §6

[6] = In vitro hydrolysis of propofol esters to propofol in albumin; type: in vitro ADME; conditions: room temperature, approximate
Description: as §4, §5, §6

[7] = In vitro hydrolysis of propofol esters to propofol in human whole blood; type: in vitro ADME; conditions: room temperature, approximate
Description: as §4, §5, §6

[8] = In vivo hydrolysis of propofol hemisuccinate after gavage (blood levels of propofol; observation of the animals); design: species or system male Sprague-Dawley rats; conditions: rat, two days following dosing
Description: At a dosage of 400 mg of propofol hemisuccinate per kg body weight, the blood level of propofol at 4 hrs was about 1 μg/ml.

[9] = In vitro hydrolysis of propofol esters to propofol in rat whole blood; type: in vitro ADME; conditions: room temperature, approximate
Description: as §4, §5, §6

[10] = In vitro hydrolysis of propofol esters to propofol in water (PBS buffer pH 7.4); type: in vitro ADME; conditions: room temperature, approximate
Description: as §4, §5, §6

[11] = test system: Human low density lipoprotein (huLDL); assay: Effect of propofol esters on myeloperoxidase-mediated oxidation of LDL (conjugated dienes); type: biochemical; conditions: concentration not given
Source text: as §1, §2
Human low density lipoprotein (huLDL) in the presence of myeloperoxidase undergoes oxidative modification. The oxidative damage may be measured by spectrophotometric detection of the resulting conjugated dienes (N. Santanam & S. Parthasarathy, J. Clin. Invest, 95(6):2594 (1995)).

[12] = in words; background knowledge; cited from earlier work
lipid peroxidation = conditions: Misacchia et al. 1991; cited from earlier work

Cc1c(C)c2c(c(C)c1O)CCC(C)(CCCC(C)CCCC(C)CCCC(C)C)O2 (stereo not drawn) [Alpha-tocopherol]
effect on chronic neurological recovery (spinal cord): enhance chronic neurological recovery
effect on post-traumatic spinal cord ischemia (spinal cord): decrease post-traumatic spinal cord ischemia
uptake into the central nervous system [1]: very slowly
growth of colorectal cancer tumors (colorectal cancer tumors): inhibited the growth

CC(C)c1cccc(C(C)C)c1OP(=O)(O)Oc1c(C(C)C)cccc1C(C)C [di(propofol) phosphoric acid ester]
effect on copper-promoted oxidation of LDL [2]: not significantly affected
effect on oxidation of LDL in the presence of horseradish peroxidase/hydrogen peroxide [3]: not significantly affected

CC(C)c1cccc(C(C)C)c1OP(=O)(O)O [mono(propofol) phosphate]
solubility in water (Water solubility): most soluble
effect on copper-promoted oxidation of LDL [2]: not significantly affected
effect on oxidation of LDL in the presence of horseradish peroxidase/hydrogen peroxide [3]: not significantly affected
Half-Life to Hydrolysis [4]: about four

CC(C)c1cccc(C(C)C)c1OC(=O)CCC(=O)O [propofol hemisuccinate, 2,6-diisopropylphenyl hydrogen succinate]
solubility in water (Water solubility): most soluble
half-life [5]: ~72 h
effect on copper-promoted oxidation of LDL [2]: not significantly affected
half-life [6]: ~144 h
effect on oxidation of LDL in the presence of horseradish peroxidase/hydrogen peroxide [3]: slightly inhibited
half-life [7]: ~48 h
condition of the animals through the two day observation period [8]: remained healthy and active
half-life [9]: ~2 h
half-life [4]: ~96 h
half-life [10]: ~336 h
effect on oxidation of LDL in the presence of myeloperoxidase [11]: partly inhibited; also recorded: significantly inhibited

CC(C)c1cccc(C(C)C)c1O [propofol, 2,6-diisopropylphenol]
effect on copper-promoted oxidation of LDL [2]: almost totally inhibited
effect on oxidation of LDL in the presence of horseradish peroxidase/hydrogen peroxide [3]: almost totally inhibited
water solubility of propofol [12]: almost completely insoluble in water; also recorded: very low water solubility
inhibition of lipid peroxidation (lipid peroxidation): inhibit lipid peroxidation

S=C(S)N1CCCC1 [pyrrolidine dithiocarbamate (PDTC), pyrrolidine dithiocarbamate]
growth of colorectal cancer tumors (colorectal cancer tumors): inhibited the growth
